Measured values reported in the NIST ThermoML archive (doi:10.1021/je8004134).
± gives the expanded uncertainty stated by the source.

Experiment: an = ratio of the nth substance listed, in mol/kg
Details: 298.15 K, 101 kPa, Liquid; for speed of sound: Sing-around technique in a fixed-path interferometer; for mass density: Vibrating tube method

C[S+](C)[O-] [dimethyl sulfoxide] + [Cl-].[Cl-].[Zn+2]
a2 = 0
Details	mass density [kg/m3]	speed of sound [m/s]
–	1095.2 ± 0.32	1484.1 ± 1.2

CC(=O)N(C)C [N,N-dimethylethanamide] + [Cu+2].[O-][Cl+3]([O-])([O-])[O-].[O-][Cl+3]([O-])([O-])[O-]
a2 = 0
Details	mass density [kg/m3]	speed of sound [m/s]
–	936.11 ± 0.32	1455.4 ± 1.2

[Cl][Cu][Cl] [copper chloride] + CC(=O)N(C)C
Details	mass density [kg/m3]	speed of sound [m/s]
a1 = 0.04793	941.347 ± 0.25	1456.2 ± 1.2
a1 = 0.09502	946.26 ± 0.25	1457.1 ± 1.2
a1 = 0.139	950.849 ± 0.25	1458 ± 1.2
a1 = 0.1852	955.662 ± 0.24	1458.9 ± 1.2
a1 = 0.2306	960.406 ± 0.24	1459.9 ± 1.2
a1 = 0.2755	965.086 ± 0.24	1460.9 ± 1.2
a1 = 0.3194	969.661 ± 0.24	1461.9 ± 1.2
a1 = 0.364	974.319 ± 0.24	1462.9 ± 1.2

[Ni+2].[O-][Cl+3]([O-])([O-])[O-].[O-][Cl+3]([O-])([O-])[O-] [nickel perchlorate] + CC(=O)N(C)C
Details	mass density [kg/m3]	speed of sound [m/s]
a1 = 0.03452	943.693 ± 0.32	1460.5 ± 1.2
a1 = 0.06515	950.677 ± 0.32	1464.3 ± 1.2
a1 = 0.096	957.709 ± 0.32	1468.2 ± 1.2
a1 = 0.1279	964.983 ± 0.32	1472.3 ± 1.2
a1 = 0.1604	972.395 ± 0.31	1476.5 ± 1.2
a1 = 0.1898	979.089 ± 0.31	1480.4 ± 1.2
a1 = 0.2198	985.93 ± 0.31	1484.6 ± 1.2
a1 = 0.2504	992.904 ± 0.31	1489 ± 1.2

CC(=O)N(C)C [N,N-dimethylethanamide] + [Ni+2].[O-][Cl+3]([O-])([O-])[O-].[O-][Cl+3]([O-])([O-])[O-]
a2 = 0
Details	mass density [kg/m3]	speed of sound [m/s]
–	936.168 ± 0.32	1455.4 ± 1.2

C[S+](C)[O-] [dimethyl sulfoxide] + [Co+2].[O-][Cl+3]([O-])([O-])[O-].[O-][Cl+3]([O-])([O-])[O-]
a2 = 0
Details	mass density [kg/m3]	speed of sound [m/s]
–	1095.19 ± 0.37	1484.1 ± 1.2

[Cu+2].[O-][Cl+3]([O-])([O-])[O-].[O-][Cl+3]([O-])([O-])[O-] [copper perchlorate] + CC(=O)N(C)C
Details	mass density [kg/m3]	speed of sound [m/s]
a1 = 0.06523	950.245 ± 0.31	1463.1 ± 1.2
a1 = 0.09641	957.338 ± 0.32	1466.4 ± 1.2
a1 = 0.1434	968.019 ± 0.31	1471.3 ± 1.2
a1 = 0.1894	978.49 ± 0.31	1476.5 ± 1.2
a1 = 0.2336	988.543 ± 0.31	1481.5 ± 1.2
a1 = 0.2774	998.499 ± 0.31	1486.9 ± 1.2
a1 = 0.3204	1008.3 ± 0.31	1492.2 ± 1.2
a1 = 0.364	1018.21 ± 0.31	1498.1 ± 1.2

C[S+](C)[O-] [dimethyl sulfoxide] + [Cl][Co][Cl]
a2 = 0
Details	mass density [kg/m3]	speed of sound [m/s]
–	1095.19 ± 0.32	1484.1 ± 1.2

CC(=O)N(C)C [N,N-dimethylethanamide] + [Cl][Ni][Cl]
a2 = 0
Details	mass density [kg/m3]	speed of sound [m/s]
–	936.23 ± 0.25	1455.4 ± 1.2

[Cl-].[Cl-].[Zn+2] [zinc chloride] + CC(=O)N(C)C
Details	mass density [kg/m3]	speed of sound [m/s]
a1 = 0.05996	942.244 ± 0.25	1456.9 ± 1.2
a1 = 0.1117	947.615 ± 0.25	1457.9 ± 1.2
a1 = 0.1487	951.455 ± 0.24	1458.7 ± 1.2
a1 = 0.1875	955.473 ± 0.24	1459.5 ± 1.2
a1 = 0.223	959.152 ± 0.24	1460.3 ± 1.2
a1 = 0.2595	962.944 ± 0.24	1461.2 ± 1.2
a1 = 0.2955	966.681 ± 0.24	1462.1 ± 1.2
a1 = 0.3148	968.679 ± 0.24	1462.5 ± 1.2

C[S+](C)[O-] [dimethyl sulfoxide] + [Cl][Cu][Cl]
a2 = 0
Details	mass density [kg/m3]	speed of sound [m/s]
–	1095.2 ± 0.33	1484.1 ± 1.2

C[S+](C)[O-] [dimethyl sulfoxide] + [Mn+2].[O-][Cl+3]([O-])([O-])[O-].[O-][Cl+3]([O-])([O-])[O-]
a2 = 0
Details	mass density [kg/m3]	speed of sound [m/s]
–	1095.19 ± 0.37	1484.1 ± 1.2

CC(=O)N(C)C [N,N-dimethylethanamide] + [Cl][Cu][Cl]
a2 = 0
Details	mass density [kg/m3]	speed of sound [m/s]
–	936.304 ± 0.25	1455.4 ± 1.2

CC(=O)N(C)C [N,N-dimethylethanamide] + [Cl-].[Cl-].[Zn+2]
a2 = 0
Details	mass density [kg/m3]	speed of sound [m/s]
–	936.22 ± 0.25	1455.4 ± 1.2

[Cl][Cu][Cl] [copper chloride] + C[S+](C)[O-]
Details	mass density [kg/m3]	speed of sound [m/s]
a1 = 0.04097	1100.01 ± 0.33	1485.3 ± 1.2
a1 = 0.05136	1101.21 ± 0.33	1485.5 ± 1.2
a1 = 0.0616	1102.39 ± 0.33	1485.8 ± 1.2
a1 = 0.07134	1103.53 ± 0.33	1486 ± 1.2
a1 = 0.08195	1104.77 ± 0.33	1486.2 ± 1.2
a1 = 0.09202	1105.94 ± 0.33	1486.4 ± 1.2
a1 = 0.1022	1107.13 ± 0.33	1486.6 ± 1.2

[Cl][Co][Cl] [cobalt chloride] + C[S+](C)[O-]
Details	mass density [kg/m3]	speed of sound [m/s]
a1 = 0.04252	1099.76 ± 0.33	1485.1 ± 1.2
a1 = 0.06132	1101.77 ± 0.33	1485.6 ± 1.2
a1 = 0.08074	1103.85 ± 0.33	1486.2 ± 1.2
a1 = 0.1018	1106.1 ± 0.33	1486.7 ± 1.2
a1 = 0.122	1108.29 ± 0.33	1487.4 ± 1.2
a1 = 0.1423	1110.49 ± 0.33	1488.2 ± 1.2
a1 = 0.1621	1112.63 ± 0.33	1488.8 ± 1.2
a1 = 0.1818	1114.77 ± 0.33	1489.5 ± 1.2
a1 = 0.202	1116.97 ± 0.33	1490 ± 1.2
